The results in this text go back to US7939263B2, “Compositions and methods for treating and diagnosing cancer” (The Regents of the University of Michigan, priority 2005, dated 2011).

The test system of this assay is PE13 passaged human breast tumor cells. The assay can be described thus: Xenograft tumor growth after gamma secretase inhibition. It is filed as in vivo. How it is done:
A) The average tumor volume from L-685-458 treated (n=5) versus control (n=7) animals is plotted for each day measured over 37 days. B) The tumor volume of individual L-685-458 treated and control mice is plotted for each day measured.
In alternative embodiments, gamma secretase activity was decreased using the small-molecule inhibitor L-685,458 (Yan et al., 2004, J. Neurosci. 24:2942) and the effect on tumor growth was assessed in a xenograft model. 20,000 PE13 passaged human breast tumor cells were injected into the mammary fat pads of NOD/SCID mice. The mice were then injected subcutaneously daily with 9 mg/kg L-685,458 (n=5) or vehicle control (n=7) for 25 days. Starting on day 11, the tumor volume was measured three times a week for a total of 48 days. […] The tumor volumes for individual mice are plotted in FIG. 13B. Thus inhibiting gamma secretase activity by using a small molecule gamma secretase inhibitor predicted to reduce Notch signaling reduced tumor growth.

For `CC(C)C[C@H](NC(=O)[C@H](Cc1ccccc1)C[C@@H](O)[C@H](Cc1ccccc1)NC(=O)OC(C)(C)C)C(=O)N[C@@H](Cc1ccccc1)C(N)=O` [L-685,458], the “growth of injected tumor cells” value (20,000 PE13 cells in mammary fat pads of NOD/SCID mice, 9 mg/kg subcutaneously daily for 25 days (n=5) vs vehicle control (n=7)) is recorded as “significantly inhibited the growth of injected tumor cells”. In addition, the average tumor volume result (NOD/SCID mice, 9 mg/kg s.c. daily for 25 days, measured three times a week from day 11, total 48 days, vs vehicle control) was “reduced compared to control animals throughout the study”.
